From patent US9987276B2 (Celgene CAR LLC, priority 2008, dated 2018) come the findings set out here.

Bounds are passed on as bounds.

Assay [1] deals with T1, BTK (Homo sapiens (Human), UniProt Q06187). Nature of the assay: Omnia assay for potency assessment against BTK. Type of assay: biochemical. To be noted: [BTK]=5 nM, Omnia assay; read-out: BTK Inhibition (IC50). As for the experimental part:
The modified BTK-optimized reagent conditions for the above protocol are:
[BTK]=5 nM, [ATP]=[…], [Y5-Sox]=[…] (ATP KMapp˜[…]).

Assay [2] deals with T1, BTK. Nature of the assay: BTK Ramos cellular assay (PLCγ2 phosphorylation). The assay is classed as cell-based. The settings on record: Ramos cells, 1 hour compound, anti-IgM stimulation, p-PLCγ2; read-out: BTK Inhibition (IC50), BTK Ramos cellular inhibition.
Assay [3] has as its target T1, BTK. Nature of the assay: Washout experiment with Ramos cells. Type of assay: cell-based. The settings on record: 100 nM compound for 1 hour, then washout. As for the experimental part:
Ramos cells were serum starved for one hour in RPMI media+1% glutamine at 37° C. After starvation, Ramos cells were treated with 100 nM compound diluted in serum free RPMI media for 1 hour. After compound treatment, the media was removed and cells were washed with compound-free media. Subsequently, Ramos cells were washed every 2 hours and resuspended in fresh compound-free media. Cells were collected at specified timepoints, treated with 1 ug anti-human IgM (Southern Biotech cat #2022-01) for 10 minutes on ice to induce BCR signaling and then washed in PBS. Ramos cells were then lysed in Cell Extraction Buffer (Invitrogen FNN0011) supplemented with Roche complete protease inhibitor tablets (Roche 11697498001) and phosphatase inhibitors (Roche 04 906 837 001) and 18 ug total protein lysate was loaded in each lane. Inhibition of BTK kinase activity was assayed by measuring its substrate (PLCγ2) phosphorylation by western blot with phospho-specific antibodies from Cell Signaling Technologies cat #3871. The results of this experiment with compounds I-2, I-4 and I-7 are depicted in FIGS. 1, 2 and 3.

Assay [4] has as its target ITK (Homo sapiens (Human), UniProt Q08881). Nature of the assay: Omnia assay for potency assessment against active forms of ITK kinase. To be noted: [ITK]=10 nM, [ATP]=25, [Y6-Sox]=10 μM; read-out: ITK Inhibition. Type of assay: biochemical. The protocol:
[ITK]=10 nM, [ATP]=25 [Y6-Sox]=10 μM (ATP KMapp=33 μM).

Assay [5] has as its target BMX (Homo sapiens (Human), UniProt P51813). Nature of the assay: Omnia assay for potency assessment against active forms of BMX kinase. Type of assay: biochemical. The settings on record: [BMX]=2.5 nM, [ATP]=100 μM, [Y5-Sox]=7.5 μM; read-out: BMX Inhibition. As for the experimental part:
Briefly, 10× stocks of EGFR-WT (PV3872) from Invitrogen and EGFR-T790M/L858R (40350) from BPS Bioscience, San Diego, Calif., 1.13×ATP (AS001A) and appropriate Tyr-Sox conjugated peptide substrates (KCZ1001) were prepared in 1× kinase reaction buffer consisting of 20 mM Tris, pH 7.5, 5 mM MgCl2, 1 mM EGTA, 5 mM β-glycerophosphate, 5% glycerol (10× stock, KB002A) and 0.2 mM DTT (DS001A).
This example describes continuous-read kinase assays to measure inherent potency of compound against active forms of BMX enzymes as described in Example 251 above except that the modified BMX-optimized reagent conditions are:
[BMX]=2.5 nM, [ATP]=100 μM, [Y5-Sox]=7.5 μM (ATP KMapp=107 μM).

Assay [6] concerns the target EGFR-WT (Homo sapiens (Human), UniProt P00533). As to the kind of experiment: Omnia assay for potency assessment against EGFR (WT). To be noted: read-out: EGFR (wild type inhibition); EGFR wild type.
For assay [7], the target named is EGFR-T790M/L858R (Homo sapiens (Human), UniProt P00533, L858R/T790M). As to the kind of experiment: Omnia assay for potency assessment against EGFR (T790M/L858R). To be noted: read-out: EGFR (T790M/L858R); EGFR mutant T790M/L858R.
Sequence of EGFR-T790M/L858R (P00533 25-1210 T790M/L858R): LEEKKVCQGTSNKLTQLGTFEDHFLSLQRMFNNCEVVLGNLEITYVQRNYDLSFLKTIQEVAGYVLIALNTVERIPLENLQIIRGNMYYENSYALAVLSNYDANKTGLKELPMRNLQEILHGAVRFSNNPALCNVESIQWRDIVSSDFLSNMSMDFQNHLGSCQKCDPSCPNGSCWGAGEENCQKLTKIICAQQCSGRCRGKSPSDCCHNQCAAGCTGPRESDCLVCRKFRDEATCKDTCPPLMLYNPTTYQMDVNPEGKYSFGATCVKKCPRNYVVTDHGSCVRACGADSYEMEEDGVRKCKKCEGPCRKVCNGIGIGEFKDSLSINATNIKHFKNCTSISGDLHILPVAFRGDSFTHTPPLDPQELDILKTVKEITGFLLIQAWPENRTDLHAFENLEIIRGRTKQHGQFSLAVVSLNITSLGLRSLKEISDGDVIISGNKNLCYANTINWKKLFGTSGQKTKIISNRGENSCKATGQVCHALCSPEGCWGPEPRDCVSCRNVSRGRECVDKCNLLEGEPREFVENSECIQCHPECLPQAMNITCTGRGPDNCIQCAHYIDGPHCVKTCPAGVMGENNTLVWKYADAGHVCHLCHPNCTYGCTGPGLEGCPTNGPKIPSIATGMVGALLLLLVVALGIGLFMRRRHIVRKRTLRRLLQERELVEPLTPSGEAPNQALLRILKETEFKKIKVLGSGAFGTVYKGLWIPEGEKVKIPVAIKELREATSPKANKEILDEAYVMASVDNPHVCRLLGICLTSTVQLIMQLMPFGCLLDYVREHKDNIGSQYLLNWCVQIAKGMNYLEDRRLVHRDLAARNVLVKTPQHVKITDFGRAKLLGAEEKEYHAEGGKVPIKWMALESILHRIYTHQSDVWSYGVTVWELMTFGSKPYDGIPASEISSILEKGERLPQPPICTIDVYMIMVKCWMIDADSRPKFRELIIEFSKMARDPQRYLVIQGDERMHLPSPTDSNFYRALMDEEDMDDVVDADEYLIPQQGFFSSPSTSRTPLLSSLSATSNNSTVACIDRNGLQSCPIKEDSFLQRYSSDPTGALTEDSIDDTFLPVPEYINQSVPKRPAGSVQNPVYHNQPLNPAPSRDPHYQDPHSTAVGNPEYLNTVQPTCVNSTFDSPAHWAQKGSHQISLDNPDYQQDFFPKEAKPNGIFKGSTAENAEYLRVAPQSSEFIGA

T1 sequence (Q06187 whole entry): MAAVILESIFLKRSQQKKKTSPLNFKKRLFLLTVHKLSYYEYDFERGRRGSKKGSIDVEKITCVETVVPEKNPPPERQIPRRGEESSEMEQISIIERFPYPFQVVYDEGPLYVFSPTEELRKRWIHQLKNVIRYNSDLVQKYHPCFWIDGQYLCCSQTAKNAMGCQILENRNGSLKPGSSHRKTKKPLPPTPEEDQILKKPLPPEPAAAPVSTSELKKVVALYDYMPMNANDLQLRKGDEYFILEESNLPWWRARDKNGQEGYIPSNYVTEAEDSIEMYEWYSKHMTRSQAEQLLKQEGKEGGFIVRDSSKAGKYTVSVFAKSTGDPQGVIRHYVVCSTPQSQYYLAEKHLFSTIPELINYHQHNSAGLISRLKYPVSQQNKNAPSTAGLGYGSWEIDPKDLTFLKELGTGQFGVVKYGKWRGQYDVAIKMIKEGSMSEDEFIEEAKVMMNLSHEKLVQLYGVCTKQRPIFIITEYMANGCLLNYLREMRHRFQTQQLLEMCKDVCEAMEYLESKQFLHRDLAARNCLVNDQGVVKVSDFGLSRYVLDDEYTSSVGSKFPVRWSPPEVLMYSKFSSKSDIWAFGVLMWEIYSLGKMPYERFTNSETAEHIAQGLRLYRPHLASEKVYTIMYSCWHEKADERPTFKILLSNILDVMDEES
Sequence of EGFR-WT (P00533 668-1210): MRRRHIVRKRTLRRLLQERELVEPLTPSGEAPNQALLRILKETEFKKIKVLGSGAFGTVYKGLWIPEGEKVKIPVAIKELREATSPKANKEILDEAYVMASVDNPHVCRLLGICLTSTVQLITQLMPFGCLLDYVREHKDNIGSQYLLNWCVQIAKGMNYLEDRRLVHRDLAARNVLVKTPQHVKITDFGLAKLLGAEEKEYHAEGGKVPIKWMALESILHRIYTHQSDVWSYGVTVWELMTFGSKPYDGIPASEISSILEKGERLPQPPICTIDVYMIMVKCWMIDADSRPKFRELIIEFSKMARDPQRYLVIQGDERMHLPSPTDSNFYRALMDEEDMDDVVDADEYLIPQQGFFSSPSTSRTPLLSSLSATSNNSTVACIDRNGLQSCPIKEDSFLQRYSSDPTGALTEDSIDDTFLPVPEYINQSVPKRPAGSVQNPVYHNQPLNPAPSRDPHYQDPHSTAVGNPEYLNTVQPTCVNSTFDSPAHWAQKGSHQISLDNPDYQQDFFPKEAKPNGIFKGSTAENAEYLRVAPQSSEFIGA
Sequence of ITK (Q08881 whole entry): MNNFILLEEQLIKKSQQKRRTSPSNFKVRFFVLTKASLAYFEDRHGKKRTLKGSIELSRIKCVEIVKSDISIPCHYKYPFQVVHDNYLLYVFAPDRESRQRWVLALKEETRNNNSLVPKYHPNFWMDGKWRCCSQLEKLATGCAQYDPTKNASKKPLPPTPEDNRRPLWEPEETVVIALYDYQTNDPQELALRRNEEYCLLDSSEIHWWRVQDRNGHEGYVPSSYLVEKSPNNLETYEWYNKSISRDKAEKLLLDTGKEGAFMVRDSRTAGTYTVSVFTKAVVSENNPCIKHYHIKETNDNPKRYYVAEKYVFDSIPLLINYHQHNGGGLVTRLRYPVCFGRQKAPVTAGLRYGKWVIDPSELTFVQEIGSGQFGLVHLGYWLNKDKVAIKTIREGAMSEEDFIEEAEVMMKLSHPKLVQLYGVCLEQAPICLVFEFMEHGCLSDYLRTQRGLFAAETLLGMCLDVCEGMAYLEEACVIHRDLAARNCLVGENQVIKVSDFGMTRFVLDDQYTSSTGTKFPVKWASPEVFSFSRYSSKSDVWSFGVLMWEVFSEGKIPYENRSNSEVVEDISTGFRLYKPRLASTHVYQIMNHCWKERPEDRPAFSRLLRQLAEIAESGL
Sequence of BMX (P51813 whole entry): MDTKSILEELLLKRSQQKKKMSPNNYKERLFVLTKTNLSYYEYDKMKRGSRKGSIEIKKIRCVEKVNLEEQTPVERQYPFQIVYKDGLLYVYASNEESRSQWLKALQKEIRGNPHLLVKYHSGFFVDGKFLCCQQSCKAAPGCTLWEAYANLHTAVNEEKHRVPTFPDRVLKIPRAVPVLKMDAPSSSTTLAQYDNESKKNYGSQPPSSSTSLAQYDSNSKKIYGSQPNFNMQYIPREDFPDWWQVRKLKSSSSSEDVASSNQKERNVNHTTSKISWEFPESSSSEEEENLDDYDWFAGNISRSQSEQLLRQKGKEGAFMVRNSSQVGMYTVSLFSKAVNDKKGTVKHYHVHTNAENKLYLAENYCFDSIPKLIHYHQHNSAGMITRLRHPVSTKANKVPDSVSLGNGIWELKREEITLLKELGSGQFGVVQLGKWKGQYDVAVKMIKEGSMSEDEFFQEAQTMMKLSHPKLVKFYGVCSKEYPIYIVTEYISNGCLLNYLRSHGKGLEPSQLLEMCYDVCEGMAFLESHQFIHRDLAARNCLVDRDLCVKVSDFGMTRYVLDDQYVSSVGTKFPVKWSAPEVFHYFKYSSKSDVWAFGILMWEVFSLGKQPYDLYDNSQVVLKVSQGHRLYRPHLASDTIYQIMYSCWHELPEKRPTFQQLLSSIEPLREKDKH

As for `Cc1cccc(Nc2nc(Nc3cccc(NC(=O)/C=C/CN(C)C)c3)ncc2F)c1` [Compound I-4, (E)-4-(dimethylamino)-N-(3-(5-fluoro-4-(m-tolylamino)pyrimidin-2-ylamino)phenyl)but-2-enamide], the IC50 in assay [1] is less than 10 nM; in assay [2] it was 10 to 100 nM; in assay [4] it was 10 to 100 nM; in assay [5] it was less than 10 nM; in assay [6], less than 10 nM; in assay [7], less than 10 nM. The “BTK Inhibition Type” value in assay [3] is given as “irreversible”.
Consider `C=CC(=O)Nc1cccc(Nc2nc(Nc3ccccc3)ncc2C)c1` [Compound I-7, N-(3-(5-methyl-2-(phenylamino)pyrimidin-4-ylamino)phenyl) acrylamide], for which the IC50 in assay [1], in assay [2], in assay [4], in assay [5], in assay [6] and in assay [7] was less than 10 nM in each case. The “BTK Inhibition Type” value in assay [3] is listed as “irreversible”.
